Some test systems named below: CCRF-CEM leukemia; COLO 205 colon; HOP-62 NSCLC; HS 578T breast; M14 melanoma; MDA-MB-435; NCI-H522 lung; NCI/ADR-RES ovarian; RPMI-8226 leukemia; SNB-19 CNS.
Holding throughout (test): NCI tumour cell line growth inhibition, 48 h

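Protocol summary: plate cells (96-well), add compound at 5 concentrations, incubate 48 h, interpolate endpoints linearly. Here, GI50 denotes the concentration required for 50% inhibition of growth. TGI is the concentration that stops growth completely.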 Bounds are passed on as bounds.

With `O=c1cccc(C#CC#CCCCO)o1`, the GI50 with CCRF-CEM leukemia is 5.73 µM; with COLO 205 colon it was 2.94 µM; in the assay on HOP-62 NSCLC, 6.26 µM; in the assay with HS 578T breast, 9.68 µM; with M14 melanoma, 4.76 µM; with MDA-MB-435 it was 4.99 µM. In addition, the GI50 in the assay with NCI-H522 lung is 3.55 µM; with NCI/ADR-RES ovarian, 9.47 µM; with SNB-19 CNS, 9.13 µM. In addition, the TGI in the assay with CCRF-CEM leukemia is above 100 µM; in the assay with COLO 205 colon it was 7.87 µM; with HOP-62 NSCLC it was 12.2 µM; in the assay on HS 578T breast, 25.5 µM; with M14 melanoma, 21.5 µM; with MDA-MB-435, 13.6 µM. For the same molecule, the TGI in the assay with NCI-H522 lung was above 32 µM; with NCI/ADR-RES ovarian, above 44.2 µM; in the assay on RPMI-8226 leukemia, above 26.7 µM; in the assay with SNB-19 CNS, 39.1 µM.

`O=S(=O)(NC1=NCCN1C(=S)SN1CCn2c1nsc2=S)c1cccc(OC(F)(F)F)c1`: the GI50 in the assay with CCRF-CEM leukemia was 2.16 µM; in the assay on COLO 205 colon, 13.3 µM; with HOP-62 NSCLC, 8 µM; with HS 578T breast, 35.9 µM; in the assay on M14 melanoma, 13 µM; in the assay with MDA-MB-435, 5.86 µM. The GI50 was 6.85 µM with NCI-H522 lung, 12 µM in the assay on NCI/ADR-RES ovarian, 2.06 µM in the assay with RPMI-8226 leukemia and 18 µM in the assay with SNB-19 CNS. Also, the TGI was 4.22 µM in the assay on CCRF-CEM leukemia; above 100 µM in the assay with COLO 205 colon; 20.3 µM in the assay with HOP-62 NSCLC; above 100 µM in the assay with HS 578T breast; 28.1 µM in the assay with M14 melanoma; 22.1 µM with MDA-MB-435. Also, the TGI in the assay on NCI-H522 lung was 28.3 µM; with NCI/ADR-RES ovarian, 44.8 µM; with RPMI-8226 leukemia it was 4.44 µM; in the assay with SNB-19 CNS it was 45.4 µM.

Turning to `Cn1nnc2c(C(N)=O)ncn2c1=O`, the TGI in the assay with CCRF-CEM leukemia, with COLO 205 colon, in the assay on HOP-62 NSCLC, in the assay on HS 578T breast, in the assay with M14 melanoma and in the assay with MDA-MB-435 was above 100 µM in each case. Besides, the TGI in the assay on NCI-H522 lung, with NCI/ADR-RES ovarian, with RPMI-8226 leukemia and in the assay with SNB-19 CNS was above 100 µM in each case.

For `CCOC1OC(=O)[C@H]2[C@@H]1[C@@H]1CC[C@H]2O1` (some centres undefined), the GI50 in the assay on CCRF-CEM leukemia is above 100 µM; in the assay with COLO 205 colon, 7.96 µM; with HOP-62 NSCLC it was above 100 µM; in the assay with HS 578T breast it was above 100 µM; in the assay on M14 melanoma, above 100 µM; with MDA-MB-435 it was above 100 µM. Further, the GI50 was above 100 µM in the assay with NCI-H522 lung, above 100 µM with NCI/ADR-RES ovarian, above 29.3 µM in the assay with RPMI-8226 leukemia and above 100 µM in the assay on SNB-19 CNS. For the same molecule, the TGI in the assay with CCRF-CEM leukemia is above 100 µM; in the assay with COLO 205 colon it was above 19.8 µM; in the assay with HOP-62 NSCLC it was above 100 µM; in the assay with HS 578T breast it was above 100 µM; in the assay with M14 melanoma, above 100 µM; in the assay on MDA-MB-435 it was above 100 µM. The TGI in the assay with NCI-H522 lung, with NCI/ADR-RES ovarian, in the assay on RPMI-8226 leukemia and with SNB-19 CNS was above 100 µM each time.

For `Nc1n[nH]c(N)c1N=Nc1ccc(O)cc1`, the GI50 in the assay with CCRF-CEM leukemia is 20 µM; in the assay on COLO 205 colon, 18.9 µM; with HOP-62 NSCLC, 31.8 µM; in the assay with HS 578T breast, 21.8 µM; with M14 melanoma it was 15.9 µM; in the assay on MDA-MB-435, 17.1 µM. Also, the GI50 in the assay on NCI-H522 lung is 24.3 µM; in the assay with NCI/ADR-RES ovarian it was 22.6 µM; in the assay on RPMI-8226 leukemia it was 14.4 µM; with SNB-19 CNS, 29.8 µM. Also, the TGI with CCRF-CEM leukemia was 63 µM; with COLO 205 colon, 54.2 µM; in the assay with HOP-62 NSCLC, above 100 µM; in the assay with HS 578T breast it was 77.8 µM; in the assay with M14 melanoma it was above 100 µM; in the assay with MDA-MB-435 it was 59.4 µM. The TGI in the assay with NCI-H522 lung was above 100 µM; in the assay with NCI/ADR-RES ovarian, 92.4 µM; in the assay on RPMI-8226 leukemia, 54.3 µM; in the assay on SNB-19 CNS, above 100 µM.

With `O=C1CCC(N2C(=O)c3cccc(NCCCC4CCN(CCNC(=O)c5cc6c(o5)C(=O)c5ccccc5C6=O)CC4)c3C2=O)C(=O)N1` (centres undefined), the GI50 with CCRF-CEM leukemia is 2.27 µM; with COLO 205 colon it was 0.266 µM; with HOP-62 NSCLC, 1.44 µM; in the assay with HS 578T breast, 1.95 µM; with M14 melanoma, 0.161 µM; with MDA-MB-435 it was 0.182 µM. Besides, the GI50 in the assay with NCI-H522 lung was 1.5 µM; with NCI/ADR-RES ovarian it was 2.89 µM; in the assay on RPMI-8226 leukemia it was 1.7 µM; with SNB-19 CNS, 0.673 µM. Moreover, the TGI in the assay on CCRF-CEM leukemia was above 71.6 µM; in the assay on COLO 205 colon it was 0.808 µM; in the assay with HOP-62 NSCLC, 2.86 µM; with HS 578T breast, 6.9 µM; with M14 melanoma, 0.309 µM; with MDA-MB-435, 0.335 µM. The TGI with NCI-H522 lung amounted to 3.27 µM; in the assay on NCI/ADR-RES ovarian, 14.7 µM; with RPMI-8226 leukemia it was 20.9 µM; in the assay on SNB-19 CNS, 1.97 µM.

As to `CC1=C(C(=O)Nc2ccc(F)c(Cl)c2)C(c2ccccc2O)NC(=O)N1` (centres undefined), the GI50 was 59.9 µM in the assay on CCRF-CEM leukemia; above 100 µM with COLO 205 colon; above 100 µM in the assay with HOP-62 NSCLC; 76.3 µM in the assay on HS 578T breast; 69.9 µM in the assay with M14 melanoma; above 100 µM in the assay with MDA-MB-435. For the same molecule, the GI50 with NCI-H522 lung is 61.9 µM; in the assay with NCI/ADR-RES ovarian, above 100 µM; in the assay with RPMI-8226 leukemia, 46.1 µM; in the assay with SNB-19 CNS, above 100 µM. Besides, the TGI in the assay with CCRF-CEM leukemia, in the assay on COLO 205 colon, in the assay on HOP-62 NSCLC, in the assay on HS 578T breast, with M14 melanoma and in the assay with MDA-MB-435 was above 100 µM in each case. The TGI with NCI-H522 lung, in the assay with NCI/ADR-RES ovarian, in the assay on RPMI-8226 leukemia and in the assay with SNB-19 CNS was above 100 µM throughout.

For the origin of these results see PubChem BioAssay (NCI).
